In patent US4547489A, “Conformationally restricted thymopentin-like compounds” (Ortho Pharmaceutical Corporation, priority 1984, dated 1985):
Where a SMILES comes first, the peptide text is derived from it. Where no end group is shown, it is not given here.

Assays:
[1] = tested on: cell membrane receptor of the intact CEM cell; assay: Cyclic-GMP assay: induction of cyclic-GMP production in CEM cells; type: cell-based, human; settings: 4-5 min incubation at 37° C., radioimmunoassay of cyclic GMP
From the text: This biological activity is evidenced by an assay measuring induction of cyclic-GMP production in a human T-cell line in comparison with thymopoietin. The induction of c-GMP production by a test peptide in this assay indicates the ability of the test peptide to bind to the thymopoietin receptor site on the cell and induce thymopoietin-like biological activity.
This assay measures the ability of the test peptide to bind to the cell membrane receptor of the intact CEM cell and selectively stimulate production of cyclic-GMP, as does thymopoietin itself.
The CEM cell line was obtained from the American Type Culture Collection and was cultured in RPMI-1640 medium supplemented with 10% heat-inactivated fetal bovine serum, 10% heat-inactivated horse serum, 2mM L-glutamine, and 50 µg/ml gentamycin at 37° C. in a humid atmosphere containing 5 percent CO2, to a final density of 3-4×10^6 cells/ml. […]
The cells in TCA were then homogenized and sonicated to release cyclic nucleotide. The resulting suspension was centrifuged at 3000 g for 20 min at 4° C. and the resulting precipitate was dissolved in 0.1N NaOH and sonicated for a further 30 minutes, after which the protein content was determined by the method of Cadman, et al., Anal. Biochem., 96, 21-23 (1979). […]

[2] = tested on: isolated thymopoietin cell surface receptor protein from CEM cells; settings: 2.3×10^-10 M 125I-Tp, 4 μg receptor protein, TP 37-45 nonapeptide present, 12 h

| Compound | thymopentin-like activity (cyclic GMP induced by test peptide) [1] | displacement of 125I-thymopoietin (in words) [2] |
| --- | --- | --- |
| CC(C)[C@@H]1NC(=O)[C@H](CC(=O)O)NC(=O)[C@H](CCCCN)NC(=O)[C@H](CCCNC(=N)N)NC(=O)[C@H](Cc2ccc(O)cc2)NC1=O [peptide 1, Cyclo-(Arg-Lys-Asp-Val-Tyr)] (cyclo(DVYRK)) | demonstrated thymopentin-like activity |  |
| CC(C)[C@@H]1NC(=O)[C@H](CC(=O)O)NC(=O)[C@H](CCCCN)NC(=O)[C@H](CCCNC(=N)N)NC(=O)CNC(=O)[C@H](Cc2ccc(O)cc2)NC1=O [peptide 2, Cyclo-[Arg-Lys-Asp-Val-Tyr-Gly]] (cyclo(DVYGRK)) | demonstrated thymopentin-like activity |  |
| C[C@H](N)C(=O)NCC(=O)N[C@H]1CSSC[C@@H](C(=O)O)NC(=O)[C@H](CO)NC(=O)[C@H]([C@@H](C)O)NC(=O)[C@H](Cc2ccccc2)NC(=O)[C@H]([C@@H](C)O)NC(=O)[C@H](CCCCN)NC(=O)[C@H](Cc2c[nH]c3ccccc23)NC(=O)[C@H](Cc2ccccc2)NC(=O)[C@H](Cc2ccccc2)NC(=O)[C@H](CC(N)=O)NC(=O)[C@H](CCCCN)NC1=O [somatostatin] |  | no detectable displacement |
| ACTH: adrenocorticotropic hormone (SYSMEHFRWGKPVGKKRRPVKVYPNGAEDESAEAFPLEF; Corticotropin; UniProt P01189 138-176, looked up) |  | no detectable displacement |
| CRF: corticotropin-releasing factor (SEEPPISLDLTFHLLREVLEMARAEQLAQQAHSNRKLMEII; ends and bridges not checked; UniProt P06850 154-194, looked up) |  | no detectable displacement |
| glucagon: comparison peptide in the receptor assay |  | no detectable displacement |
| growth hormone: comparison peptide in the receptor assay |  | no detectable displacement |
| ubiquitin |  | no detectable displacement |
| β-endorphin: comparison peptide in the receptor assay (YGGFMTSEKSQTPLVTLFKNAIIKNAYKKGE; Beta-endorphin; UniProt P01189 237-267, looked up) |  | no detectable displacement |
